# Read-outs that look alike come from different tables or passages of the source.
# Key:
# rhesus monkeys [1] = conditions: previously published in Rowlett et al., 2006; cited from earlier work
# [2] = target: T1, α2-containing GABAA receptors (human α2, β3, γ2L) (Homo sapiens, UniProt P18507+P47869); assay: Potentiation of GABA evoked currents, recombinant GABA-A receptors in Xenopus oocytes, two-electrode voltage clamp; assay type: cell-based
# T1 construct: expressed in transfected cells; host or cells: Xenopus oocytes (cDNA injected, alpha:beta:gamma 1:1:3)
# T1 sequence (P47869 29-451): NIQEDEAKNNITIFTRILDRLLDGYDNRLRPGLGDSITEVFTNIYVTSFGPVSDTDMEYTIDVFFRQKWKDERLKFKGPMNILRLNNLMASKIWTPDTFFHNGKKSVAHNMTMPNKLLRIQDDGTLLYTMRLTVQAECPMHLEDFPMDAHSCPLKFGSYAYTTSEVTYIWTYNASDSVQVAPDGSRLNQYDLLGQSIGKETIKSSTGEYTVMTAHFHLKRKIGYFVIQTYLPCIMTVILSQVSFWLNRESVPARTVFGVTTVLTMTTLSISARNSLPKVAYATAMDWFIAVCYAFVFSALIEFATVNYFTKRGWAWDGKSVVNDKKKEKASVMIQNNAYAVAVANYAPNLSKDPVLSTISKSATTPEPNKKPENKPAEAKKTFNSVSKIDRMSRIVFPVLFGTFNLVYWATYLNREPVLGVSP
# T1 sequence (P28472 26-473 partner): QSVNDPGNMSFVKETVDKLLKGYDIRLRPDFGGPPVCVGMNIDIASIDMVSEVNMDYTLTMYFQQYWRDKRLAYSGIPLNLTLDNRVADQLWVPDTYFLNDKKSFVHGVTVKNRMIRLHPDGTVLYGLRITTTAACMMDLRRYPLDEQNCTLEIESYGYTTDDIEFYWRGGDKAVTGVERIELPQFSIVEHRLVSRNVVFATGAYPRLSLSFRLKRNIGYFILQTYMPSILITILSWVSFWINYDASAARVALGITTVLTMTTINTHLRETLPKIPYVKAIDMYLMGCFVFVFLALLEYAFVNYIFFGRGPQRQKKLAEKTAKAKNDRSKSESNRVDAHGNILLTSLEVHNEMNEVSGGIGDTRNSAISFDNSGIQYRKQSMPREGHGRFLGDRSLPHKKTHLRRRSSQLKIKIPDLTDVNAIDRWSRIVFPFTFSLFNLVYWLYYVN
# T1 sequence (P18507 40-475): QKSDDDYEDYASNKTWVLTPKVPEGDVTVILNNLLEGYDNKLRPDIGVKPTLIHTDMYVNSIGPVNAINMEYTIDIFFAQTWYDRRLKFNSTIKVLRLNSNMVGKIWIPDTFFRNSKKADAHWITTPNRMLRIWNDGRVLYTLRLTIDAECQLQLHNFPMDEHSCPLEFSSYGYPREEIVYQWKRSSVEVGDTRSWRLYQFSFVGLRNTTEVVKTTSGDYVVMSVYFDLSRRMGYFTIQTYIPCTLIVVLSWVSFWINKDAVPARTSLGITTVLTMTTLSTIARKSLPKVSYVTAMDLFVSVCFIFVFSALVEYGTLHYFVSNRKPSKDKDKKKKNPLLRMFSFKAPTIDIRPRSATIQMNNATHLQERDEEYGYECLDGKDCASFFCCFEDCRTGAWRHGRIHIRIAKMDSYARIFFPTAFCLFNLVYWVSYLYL
# Description: (§1) FIG. 2 is a plot showing the concentration-dependent potentiation of GABA evoked currents by (S)-zopiclone. For all experiments, human cDNA encoding each subunit was injected in oocytes in a stoichiometry of 1:1:3 (alpha, beta, gamma subunits). Approximately 24 hours later, GABA evoked currents (using a concentration of GABA equal to the EC10) were recorded from oocytes using a two-electrode voltage clamp on a robotic oocyte platform and a constant voltage of −80 mV. GABA was applied to the oocytes via a perfusion system for 20 seconds and then removed. An inward deflection of the current trace was recorded and subsequently compared to the responses resulting from applying the same concentration of GABA plus varying concentrations of the test compound ((S)-zopiclone). A doubling of the GABA evoked current is represented as a potentiation ratio of 1.0.
# (§2) The GABA-A receptor is gated by GABA, and ligands at the benzodiazepine site potentiate GABA-evoked currents. It is well-established in the scientific literature that classical benzodiazepines potentiate GABA evoked chloride currents through GABA-A receptors. The efficacies of classical benzodiazepines can be described as “full modulators” referring to their ability to increase the chloride currents induced by sub-maximal GABA concentrations. The action of (S)-zopiclone on GABA-A receptors was evaluated by examining their effects on electrophysiological recordings in a recombinant expression system.
# (§3) Recombinant GABA-A receptors were expressed in Xenopus oocytes by injecting cDNA encoding the human β3, γ2L, and each of α1, α2, α3, or α5 subunits in turn to assemble functional channels. Channel activity was measured using two-electrode voltage clamp in whole cell configuration on a robotic workstation. […] The potentiation ratio was then measured as the fold-increase in current generated by a (S)-zopiclone plus an EC10 of GABA, compared to the current generated by just the EC10 of GABA alone. These potentiation ratios were measured at a range of (S)-zopiclone concentrations to generate a subsequent concentration response curve at each of the subtypes using between 2 and 7 oocytes. […]
# (§4) For all experiments, human cDNA encoding each subunit was injected in oocytes in a stoichiometry of 1:1:3 (alpha, beta, gamma subunits). Approximately 24 hours later, GABA evoked currents (using a concentration of GABA equal to the EC10) were recorded from oocytes using a two-electrode voltage clamp on a robotic oocyte platform and a constant voltage of −80 mV. […] An inward deflection of the current trace was recorded and subsequently compared to the responses resulting from applying the same concentration of GABA plus varying concentrations of the test compound [(S)-zopiclone]. […]
# [3] = target: T2, α3-containing GABAA receptors (human α3, β3, γ2L) (Homo sapiens, UniProt P18507+P34903); assay: as above; assay type: cell-based
# T2 construct: expressed in transfected cells; host or cells: Xenopus oocytes (cDNA injected, alpha:beta:gamma 1:1:3)
# T2 sequence (P34903 29-492): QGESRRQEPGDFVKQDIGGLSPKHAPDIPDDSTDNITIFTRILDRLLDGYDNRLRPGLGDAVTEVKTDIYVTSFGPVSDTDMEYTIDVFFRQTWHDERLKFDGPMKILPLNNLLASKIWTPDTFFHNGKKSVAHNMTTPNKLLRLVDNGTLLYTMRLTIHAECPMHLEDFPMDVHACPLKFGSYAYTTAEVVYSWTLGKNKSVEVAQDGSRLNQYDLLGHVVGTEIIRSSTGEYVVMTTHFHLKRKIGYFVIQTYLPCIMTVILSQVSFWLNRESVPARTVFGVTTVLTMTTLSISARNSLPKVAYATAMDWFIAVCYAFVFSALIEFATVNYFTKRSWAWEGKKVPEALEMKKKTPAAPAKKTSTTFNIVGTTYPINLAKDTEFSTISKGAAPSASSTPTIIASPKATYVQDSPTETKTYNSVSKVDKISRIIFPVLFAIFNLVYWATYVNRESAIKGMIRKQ
# T2 sequence (P28472 26-473 partner): as the sequence (P28472 26-473 partner) above
# T2 sequence (P18507 40-475): as the sequence (P18507 40-475) above
# Description: as §1, §2, §3, §4
# [4] = target: T3, α5-containing GABAA receptors (human α5, β3, γ2L) (Homo sapiens, UniProt P18507+P31644); assay: as above; assay type: cell-based
# T3 construct: expressed in transfected cells; host or cells: Xenopus oocytes (cDNA injected, alpha:beta:gamma 1:1:3)
# T3 sequence (P31644 32-462): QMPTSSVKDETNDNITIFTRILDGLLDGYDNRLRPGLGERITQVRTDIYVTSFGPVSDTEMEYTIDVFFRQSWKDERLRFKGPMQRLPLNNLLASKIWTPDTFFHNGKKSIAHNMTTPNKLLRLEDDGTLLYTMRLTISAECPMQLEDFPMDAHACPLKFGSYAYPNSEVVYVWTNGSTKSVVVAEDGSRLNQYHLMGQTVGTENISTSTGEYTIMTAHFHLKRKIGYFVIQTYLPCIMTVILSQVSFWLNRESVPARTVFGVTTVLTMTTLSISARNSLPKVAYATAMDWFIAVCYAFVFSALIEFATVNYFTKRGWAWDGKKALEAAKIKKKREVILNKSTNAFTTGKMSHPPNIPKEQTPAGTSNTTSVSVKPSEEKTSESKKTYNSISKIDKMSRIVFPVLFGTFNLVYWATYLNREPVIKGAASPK
# T3 sequence (P28472 26-473 partner): as the sequence (P28472 26-473 partner) above
# T3 sequence (P18507 40-475): as the sequence (P18507 40-475) above
# Description: as §1, §2, §3, §4
# [5] = target: T4, α1-containing GABAA receptors (human α1, β3, γ2L) (Homo sapiens, UniProt P14867+P18507); assay: as above; assay type: cell-based
# T4 construct: expressed in transfected cells; host or cells: Xenopus oocytes (cDNA injected, alpha:beta:gamma 1:1:3)
# T4 sequence (P14867 28-456): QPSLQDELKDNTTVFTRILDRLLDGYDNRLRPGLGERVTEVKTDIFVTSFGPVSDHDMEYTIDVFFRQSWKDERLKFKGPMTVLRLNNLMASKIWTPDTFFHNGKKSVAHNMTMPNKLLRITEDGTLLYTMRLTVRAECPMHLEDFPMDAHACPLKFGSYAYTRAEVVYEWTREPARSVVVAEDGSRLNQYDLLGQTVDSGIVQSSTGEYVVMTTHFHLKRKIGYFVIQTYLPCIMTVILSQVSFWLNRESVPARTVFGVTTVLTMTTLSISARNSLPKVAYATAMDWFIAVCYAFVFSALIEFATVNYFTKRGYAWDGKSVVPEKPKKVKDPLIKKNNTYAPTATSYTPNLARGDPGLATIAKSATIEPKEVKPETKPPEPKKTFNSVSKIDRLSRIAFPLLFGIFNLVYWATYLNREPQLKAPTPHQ
# T4 sequence (P28472 26-473 partner): as the sequence (P28472 26-473 partner) above
# T4 sequence (P18507 40-475): as the sequence (P18507 40-475) above
# Description: as §1, §2, §3, §4
# rhesus monkeys [6] = assay: Rhesus monkey conflict procedure (suppressed and non-suppressed responding); assay type: in vivo; conditions: for ED50: Macaca mulatta, iv, rhesus monkeys; for Estimated anxiolytic dose / expected human oral dose: minimum recommended dose of diazepam 2 mg
# Description: FIG. 3 is a plot of rates of non-suppressed and suppressed responding by rhesus monkeys trained in a conflict procedure. Monkeys were injected i.v. with cumulative doses of (S)-zopiclone. Data are mean±S.E.M. for N=4 monkeys. Points above “V” represent data following drug vehicle administration. Note that *P<0.05 vs. V (control). Experimental methodology was identical to that described by Rowlett J K et al. (2006).
# “Conflict Procedure,” as used herein refers to the rhesus monkey conflict procedure reported by Rowlett et al. (Psychopharmacology (2006) 184:201-211). Antianxiety dosage determination in rhesus monkeys using the procedure set forth by Rowlett et al. is correlative with antianxiety dosages in humans. The conflict procedure is a method of determining the parameters correlating a clinically determinable effect of eszopiclone in rhesus monkeys with analogous effects in a human subject. The results of conflict procedures in rhesus monkeys are closely correlated with dosages of agents providing anxiolysis in humans. Accordingly, the conflict procedure is a method of determining whether a dosage of eszopiclone provides clinically determinable treatment or prophylaxis of anxiety in humans.
# Conflict procedures in animals are used to study mechanisms underlying the anxiolytic effects of benzodiazepines (Rowlett J K et al., Psychopharmacology (2006) 184:201-211). […] The effects of each benzodiazepine in rhesus conflict procedure is to increase suppressed responding at doses lower than the doses that ultimately decrease rates of non-suppressed responding. This characteristic profile in the rhesus conflict procedure contrasts dramatically with the effects of non-benzodiazepine hypnotics zolpidem and zaleplon, and also contrasts to the effects of GABA-A ligands with subtype efficacies different from classical benzodiazepines, such as flumazenil and CL218,872 (Rowlett J K et al., 2006).
# This correlation was used to estimate the therapeutic dose in humans for anxiolytic effects. The ED50 of the suppressed responding in FIG. 3 is 0.07 mg/kg i.v., indicating a 50% anxiolytic effect at that dose i.v. in the rhesus procedure. Using this ED50 in the regression analysis of Rowlett J K et al. (2006), an expected human oral dose of 0.9 mg is obtained. This dose is below the hypnotic doses (i.e., it is subsedative) used clinically in humans (1, 2, and 3 mg), further supporting the validity of the correspondence between the efficacy profiles of classical benzodiazepines and (S)-zopiclone.
# The potencies of eszopiclone to alter suppressed and non-suppressed responding were estimated by calculating the dose that engendered 5% to 95% of the maximum effect (EDx, where x=5-95%). The EDx for suppressed responding was obtained by dividing rates of suppressed responding for individual monkeys by the average maximum increase in response rate (i.e., the peak effect) and multiplying the value by 100. Doses on the ascending limb of the dose-response function were used to calculate the EDx by log-linear regression analysis. The EDx for non-suppressed responding was obtained by dividing rates of non-suppressed responding for individual monkeys by the average maximum decrease in response rate (this corresponded to the highest dose tested) and multiplying by 100. The EDx values for non-suppressed responding were calculated by log-linear regression analysis. All potencies were expressed as the mean±SEM for n=4 monkeys.
# A linear relationship between relative potency to induce clinical effects in humans and relative potency to increase suppressed responding or decrease non-suppressed responding in monkeys has been determined previously for 10 standard benzodiazepines (Rowlett et al., 2006). […]
# [7] = Clinical study of eszopiclone in healthy volunteers: plasma concentration-time profiles after oral administration; assay type: in vivo, human; conditions: post-dose
# Description: FIG. 1 is a plot of mean (S)-zopiclone plasma concentration-time profiles following oral administration of (S)-zopiclone.
# A clinical study of eszopiclone in healthy volunteers was performed using art-recognized methodology.
# [8] = tested on: healthy adult male human subjects; assay: EEG study (quantitative wake EEG) of single doses of eszopiclone versus placebo; assay type: in vivo
# Description: A study was conducted to evaluate the pharmacodynamic (quantitative wake electroencephalogram (qEEG) and auditory P300 (evoked potentials (EPs)) of four doses of eszopiclone, relative to placebo, in healthy adult male human subjects. The study was single-blind, placebo-controlled, ascending, single dose. Subjects received single doses of immediate release formulations that contained 0.3 mg of eszopiclone, 0.6 mg of eszopiclone, 0.9 mg of eszopiclone or 2.0 mg of eszopiclone.
# Changes in beta EEG activity are interpreted as indicating an anxiolytic effect (Ansseau et al, Neuropsychobiology 1984, 12(4):255-9; Buchsbaum et al, Biol. Psychiatry, 1985, 20(8):832-42; Macher et al, Human psychopharmacology, 1990 (eds I Hindmarch and P D Stonier), Vol 3, 10-2; Mandema and Danhof, Clin Pharmacokinet, 1992, 23(3):191-215.
# In this study, statistical EEG maps were obtained comparing EEG power values for each dose of eszopiclone versus placebo. […] The dose effect is further illustrated in the graphically depicted results of FIG. 4 which follows.
# Classically, delta activity in pharmaco-EEG indicates a sedative effect of the drug under study. Delta EEG activity is clearly modified when the sedative drug effect has reached a high threshold.
# Conclusions regarding a possible sedative effect or a trend to impair the subject's arousal should also include analyses of a drug's effects on alpha EEG activity, which reflect decreases in subject's arousal (pro sedative effect).
# [9] = log10 of predicted potency relative to diazepam in humans
# [10] = predicted potency relative to diazepam in humans
# [11] = relative potency in the monkey conflict procedure
smiles,measurement,setting,value
"CN1C(=O)CN=C(c2ccccc2)c2cc(Cl)ccc21 [Diazepam, diazepam]","ED50, non-suppressed responding",rhesus monkeys [1],1.65 mg/kg
same,"ED50, suppressed responding",rhesus monkeys [1],0.11 mg/kg
"CN1CCN(C(=O)O[C@H]2c3nccnc3C(=O)N2c2ccc(Cl)cn2)CC1 [Eszopiclone, (+)-(5S)-6-(chloropyridin-2-yl)-7-oxo-6,7-dihydro-5H-pyrrolo[3,4-b]pyrazin-5-yl 4-methyl-piperazine-1-carboxylate]",EC50,[2],100 nM
same,EC50,[3],250 nM
same,EC50,[4],40 nM
same,EC50,[5],30 nM
same,ED50,"rhesus monkeys [6]; read-out: ED50, non-suppressed responding",0.74 mg/kg
same,ED50,"rhesus monkeys [6]; read-out: ED50, suppressed responding",0.07 mg/kg
same,Estimated anxiolytic dose / expected human oral dose,"rhesus monkeys [6]; human, regression of Rowlett et al. (2006), listed as (S)-zopiclone",0.9 mg
same,Estimated anxiolytic dose / expected human oral dose,"rhesus monkeys [6]; human, regression of Rowlett et al. (2006), listed as eszopiclone",Estimated anxiolytic dose for eszopiclone = 0.9 mg
same,Estimated sedative dose,"rhesus monkeys [6]; human, regression of Rowlett et al. (2006), maximum recommended dose of diazepam 10 mg",Estimated sedative dose for eszopiclone = 3.4 mg
same,"Y = 0.583x − 0.175, Y (eszopiclone relative potency), non-suppressed responding",rhesus monkeys [6]; [9],−0.47
same,"Y = 0.672x − 0.174, Y (eszopiclone relative potency), suppressed responding",rhesus monkeys [6]; [9],−0.34
same,"10^Y, non-suppressed responding",rhesus monkeys [6]; [10],0.34
same,"10^Y, suppressed responding",rhesus monkeys [6]; [10],0.46
same,"Ratio (eszopiclone ED50 / diazepam ED50), non-suppressed responding",rhesus monkeys [6]; [11],0.31
same,"Ratio (eszopiclone ED50 / diazepam ED50), suppressed responding",rhesus monkeys [6]; [11],0.64
same,"Log10(Ratio), non-suppressed responding","rhesus monkeys [6]; rhesus monkey, in vivo",−0.51
same,"Log10(Ratio), suppressed responding","rhesus monkeys [6]; rhesus monkey, in vivo",−0.19
same,ED5 to increase rates of suppressed responding (mean),"rhesus monkeys [6]; x = 5 % maximum increase, N = 4 monkeys","0.029 mg/kg, i.v."
same,ED10 to increase rates of suppressed responding (mean),"rhesus monkeys [6]; x = 10 % maximum increase, N = 4 monkeys","0.032 mg/kg, i.v."
same,ED15 to increase rates of suppressed responding (mean),"rhesus monkeys [6]; x = 15 % maximum increase, N = 4 monkeys","0.036 mg/kg, i.v."
same,ED20 to increase rates of suppressed responding (mean),"rhesus monkeys [6]; x = 20 % maximum increase, N = 4 monkeys","0.040 mg/kg, i.v."
same,ED25 to increase rates of suppressed responding (mean),"rhesus monkeys [6]; x = 25 % maximum increase, N = 4 monkeys","0.044 mg/kg, i.v."
same,ED30 to increase rates of suppressed responding (mean),"rhesus monkeys [6]; x = 30 % maximum increase, N = 4 monkeys","0.048 mg/kg, i.v."
same,ED35 to increase rates of suppressed responding (mean),"rhesus monkeys [6]; x = 35 % maximum increase, N = 4 monkeys","0.054 mg/kg, i.v."
same,ED40 to increase rates of suppressed responding (mean),"rhesus monkeys [6]; x = 40 % maximum increase, N = 4 monkeys","0.059 mg/kg, i.v."
same,ED45 to increase rates of suppressed responding (mean),"rhesus monkeys [6]; x = 45 % maximum increase, N = 4 monkeys","0.066 mg/kg, i.v."
same,ED50 to increase rates of suppressed responding (mean),"rhesus monkeys [6]; x = 50 % maximum increase, N = 4 monkeys","0.073 mg/kg, i.v."
same,ED55 to increase rates of suppressed responding (mean),"rhesus monkeys [6]; x = 55 % maximum increase, N = 4 monkeys","0.081 mg/kg, i.v."
same,ED60 to increase rates of suppressed responding (mean),"rhesus monkeys [6]; x = 60 % maximum increase, N = 4 monkeys","0.090 mg/kg, i.v."
same,ED65 to increase rates of suppressed responding (mean),"rhesus monkeys [6]; x = 65 % maximum increase, N = 4 monkeys","0.100 mg/kg, i.v."
same,ED70 to increase rates of suppressed responding (mean),"rhesus monkeys [6]; x = 70 % maximum increase, N = 4 monkeys","0.110 mg/kg, i.v."
same,ED75 to increase rates of suppressed responding (mean),"rhesus monkeys [6]; x = 75 % maximum increase, N = 4 monkeys","0.123 mg/kg, i.v."
same,ED80 to increase rates of suppressed responding (mean),"rhesus monkeys [6]; x = 80 % maximum increase, N = 4 monkeys","0.136 mg/kg, i.v."
same,ED85 to increase rates of suppressed responding (mean),"rhesus monkeys [6]; x = 85 % maximum increase, N = 4 monkeys","0.151 mg/kg, i.v."
same,ED90 to increase rates of suppressed responding (mean),"rhesus monkeys [6]; x = 90 % maximum increase, N = 4 monkeys","0.168 mg/kg, i.v."
same,ED95 to increase rates of suppressed responding (mean),"rhesus monkeys [6]; x = 95 % maximum increase, N = 4 monkeys","0.186 mg/kg, i.v."
same,time of maximum mean (S)-zopiclone plasma concentrations,[7]; fasted conditions,0.5 to 1.5 h
same,time of maximum mean (S)-zopiclone plasma concentrations,[7]; fed conditions,2 to 3 h
same,"Alpha EEG activity (arousal), change from placebo",[8]; doses below 2.0 mg,did not exhibit major effects on arousal
same,"Alpha EEG activity (arousal), change from placebo",[8]; highest dose (2.0 mg),induces a significant impairment in the subject's arousal and possibly a sedative effect
same,"Delta EEG activity (sedative effect), change from placebo",[8]; highest dose (2.0 mg),induces a significant sedative effect
same,"Delta EEG activity (sedative effect), change from placebo","[8]; other doses (0.3, 0.6, 0.9 mg)",do not have this side effect

# Source: patent publication US20080175903A1, “Treatment of anxiety with eszopiclone” (Sepracor Inc., priority 2006, published 2008)
